{"source": "patent US20200222372A1", "about": "(Ovid Therapeutics Inc., priority 2017, published 2020)", "key": {"onset of REM sleep": {"test_system": "onset of REM sleep", "experiment": "Delay of onset of REM sleep after falling asleep in narcoleptic patient", "type": "in vivo, human (narcoleptic patient)", "conditions": "0.5 mg to 25 mg gaboxadol or salt", "experimental": "As mentioned above, people with narcolepsy frequently abnormally enter REM sleep within 15 minutes of falling asleep. […] Without wishing to be bound by any theory, symptoms associated with narcolepsy such as cataplexy, sleep paralysis, hallucinations, and automatic behaviors closely mimic the natural physiologic response that occurs during REM sleep. By inducing a more normal REM sleep architecture in narcoleptic patients, symptoms associated with narcolepsy are reduced or alleviated. […] In embodiments, the delay of onset of REM sleep is about 30 minutes or longer. In embodiments, the delay of onset of REM sleep is about 45 minutes or longer. In embodiments, the delay of onset of REM sleep is about 60 minutes or longer. In embodiments, the delay of onset of REM sleep is about 75 minutes or longer."}, "[1]": {"conditions": "human, in vivo"}}, "data": [{"compound": "Oc1noc2c1CCNC2", "note": "[gaboxadol, 4,5,6,7-tetrahydroisoxazolo [5,4-c] pyridine-3-ol]", "values": [{"measurement": "onset of REM sleep after falling asleep", "setting": "onset of REM sleep", "value": "≥ 30", "unit": "min"}, {"measurement": "CL for 10 mg IV (in CL/F row)", "setting": "[1]", "value": 438, "unit": "mL/min"}]}]}
